How the values were obtained:
PO-12 [1] = test: RIA of Set 2 peptides with PO-12; assay type: binding, mouse; set-up: key: +++; ΦΦΦ strong effect; +, Φ weak effect; conditions: Set 2 biotinylated peptides 0.8 and 0.08 micromoles/L
Description: (§1) The binding of the 41 biotinylated peptides as set forth in Table 7 (peptide set 2) to the mouse monoclonal antibodies (PO# series) was assessed as follows: b) Assay 2 (radioimrnunoassay, RIA) using iodinated human inhibin A as tracer. Mabs (at an appropriate dilution, see above) were incubated with iodinated human recombinant inhibin in the presence of biotinylated peptides (0.8 and 0.08 micromoles/L final concentration) overnight at room temperature.

As #41 = test: RIA (Assay 2): competition with iodinated inhibin for As #41; assay type: binding, sheep; conditions: biotinylated peptides; 50% fall in binding of iodinated inhibin
From the text: (§2) This assay was used to determine which peptides compete with iodinated 30 kDa inhibin for As #41, #128 and #1989 (used in the original inhibin RIA, Lapphorn et al., 1989, supra) in a RIA format. This assay identifies those peptides that bind to inhibin-binding antibodies in the antiserum and provides a stricter affinity and specificity assessment in identifying the appropriate epitopes than that found with Assay 1. The competition between peptide and hr-inhibin (used as the standard) was assessed from their ED50 values. The RIA consisted of the competition of iodinated inhibin and either hr-inhibin reference preparation, individual peptides or pools from the 4 peptide regions, with As #41, #128 and in some instances, As #1989. The peptides/inhibin/iodinated inhibin and antisera (at a prescribed dilution) were incubated overnight at 4° C. using standard methodologies. The antibody-bound iodinated inhibin was immunoprecipitated with the addition of an anti-sheep IgG serum raised in goats and the radioactivity was measured in a gamma counter. The concentration of peptide that gives a 50% fall in binding of iodinated inhibin (ED50) was determined and this value was used to give a measure of the affinity of the peptide for the antiserum. This methodology consisted of determining the ED50 of the peptide in the RIA using iodinated human recombinant inhibin as tracer with either As #41, As #128 or As #1989 and graded doses of either hr-inhibin or peptide as described in Example 2.

PO-14 [2] = test: Solid phase binding of Set 2 peptides to PO-14; set-up: species or system mouse; key: +++; ΦΦΦ strong effect; +, Φ weak effect; conditions: Set 2 biotinylated peptides 24 micromoles/L
Description: (§3) The binding of the 41 biotinylated peptides as set forth in Table 7 (peptide set 2) to the mouse monoclonal antibodies (PO# series) was assessed as follows:
(§4) a) Assay 1 (solid phase assay). The assay was undertaken as outlined in assay 1 of Example 2. Biotinylated peptides (24 micromoles/L) were initially bound to streptavidin-coated plates. Mab (at an appropriate dilution to give a detectable response, 1:1000, 1:10000 dilution of the culture medium) was then added and incubated for 1.5 hr. The amount of bound Mab was determined using horseradish peroxidase-bound anti-mouse IgG serum and enzyme activity detected at 450-630 nm using an ELISA plate reader.

PO-12 [3] = test: Solid phase binding of Set 2 peptides to PO-12; set-up: species or system mouse; key: +++; ΦΦΦ strong effect; +, Φ weak effect; conditions: Set 2 biotinylated peptides 24 micromoles/L
Description: as §3, §4

As #1989 = test: RIA (Assay 2): competition with iodinated inhibin for As #1989; assay type: binding, rabbit; conditions: biotinylated peptides; 50% fall in binding of iodinated inhibin
From the text: as §2

PO-14 [4] = test: RIA of Set 2 peptides with PO-14; assay type: binding, mouse; set-up: key: +++; ΦΦΦ strong effect; +, Φ weak effect; conditions: Set 2 biotinylated peptides 0.8 and 0.08 micromoles/L
Description: as §1

As #128 [5] = test: RIA (Assay 2): competition with iodinated inhibin for As #128; assay type: binding, sheep; conditions: biotinylated peptides; 50% fall in binding of iodinated inhibin
From the text: as §2

PO-14 [6] = test: RIA of Set 2 peptides with PO-14; assay type: binding, mouse; conditions: Set 2 biotinylated peptides 0.8 and 0.08 micromoles/L
Description: as §1

As #128 [7] = test: Solid phase assay (Assay 1): biotinylated peptides binding to As #128; set-up: species or system sheep; key: +++++ major contribution; + minor contribution; conditions: relative contribution
Description: This assay is a broad screen of the binding of the 31 biotinylated peptides to As #41 and #128 as recommended by Chiron Mimotopes.
The biotinylated peptides were initially bound to streptavidin-coated 96-well plates (2 hours at room temperature), antiserum #41 or #128 was then added (2 hours room temperature) to bind to the peptides. Detection of antiserum binding was assessed by a further incubation with an anti-ovine IgG serum labeled with the enzyme, horseradish peroxidase. The enzyme activity was assessed by conversion of a colorless substrate to a colored product that is detected in a spectrophotometer. The enzyme activity measured was proportional to the extent of the binding of the peptides.

As #128 [8] = test: Competitive 2-site assay (Assay 3), approach (a); assay type: binding, sheep; set-up: key: +++++ major contribution; + minor contribution; conditions: relative contribution
From the text: This assay was developed to establish the relative importance of the individual peptides and peptide pools (identified as epitopes in Assays 1 and 2) in the sandwich antibody format used in the IFMA with As #128 as capture antibody and As #41 as detection antibody. Two approaches (a and b) were considered, Approach (a) explores the cross-reaction of peptides with inhibin for the immobilized As #128 while Approach (b) assesses their cross-reaction with inhibin for As #41.
Approach (a). The biotinylated peptide pools and/or individual peptides at various concentrations, in combination with a fixed concentration of hr-inhibin, were incubated for 2 hours with As #128-coated plates. The plates were then washed to remove any unbound material. Iodinated As #41 was then added to bind to the bound hr-inhibin, the plates washed and the bound radioactivity was measured in a gamma counter. The counts measured were proportional to the amount of hr-inhibin bound to both antisera. The possibility that a peptide contained two epitopes capable of linking As #128 and #41 was assessed in the absence of added hr-inhibin.

R1 = test: RIA of Set 2 peptides with R1; assay type: binding, mouse; set-up: key: +++; ΦΦΦ strong effect; +, Φ weak effect; conditions: Set 2 biotinylated peptides 0.8 and 0.08 micromoles/L
Description: as §1

| PO-14 SPB (PO-14 [2]) | PO-12 SPB (PO-12 [3]) | #128 Antibody screen Assay 1 (As #128 [7]) | Substance | PO-12 RIA (PO-12 [1]) | As#41 ED50 (As #41) [µM] | As#1989 ED50 (As #1989) [µM] | PO-14 RIA (PO-14 [4]) | As#128 ED50 (As #128 [5]) [µM] | PO-14 RIA (PO-14 [6]) | #128 2-site competitive assay Assay 3 (As #128 [8]) | R1 RIA (R1) |
| --- | --- | --- | --- | --- | --- | --- | --- | --- | --- | --- | --- |
| +++ | +++ |  | SGSG GAPPTPAQPYSLLP [Peptide 22] | Φ | 5 | >2.5 | Φ | 0.156 |  |  |  |
| +++ |  |  | SGSG AALPGTMRPLHVRT [Peptide 27] | Φ | 5 | >2.5 |  | 2 | ΦΦ |  |  |
|  |  | + | SGSG ALRLLQRPPEEPAA [Peptide 6] |  | 0.026 | >2.5 |  | 1.8 |  | + | Φ |

Source: patent US7511123B2, “Immuno-interactive fragments of the alpha-C subunit of inhibin” (Prince Henry's Institute of Medical Research, priority 1999, dated 2009)
